“And” between values parts separate entries of the source, which are not always exact repeats. Equal values may be shown once.
How the values were obtained:
[1] = test system: UGT enzymes of human liver microsomes; test: Inhibition of estradiol (E2) glucuronidation in human liver microsomes; format: biochemical; settings: E2 50 μM
Source text: (§1) Compounds were eluted using a binary solvent gradient system where solvent A was dilute phosphoric acid (pH 3) and solvent B was 80:20 acetonitrile-methanol. […] Detection was at 280 nm.

[2] = test system: T1, UGT enzymes of human liver microsomes; test: as above; format: biochemical; settings: liver 032101; E2 50 μM; inhibitor 100 μM
T1 construct: residual metabolism (% of control), E2-3-β-D-glucuronide; other: liver 032101; residual metabolism (% of control), E2-3-β-D-glucuronide
Source text: as §1

[3] = test system: T2, UGT enzymes of human liver microsomes; test: Inhibition of labetalol glucuronidation (LG1, LG2) in human liver microsomes; format: biochemical; settings: labetalol 50 μM
T2 construct: residual metabolism (percentage of control), labetalol LG1; other: labetalol 50 μM; residual metabolism (percentage of control), labetalol LG1; residual metabolism (percentage of control), labetalol LG2; inhi
Experimental: Supernatants were analyzed by HPLC with fluorescence detection.
Compounds were eluted using a binary solvent gradient system where solvent A was 5:5:90 tetrahydrofuran-acetonitrile-(NH4)2HPO4 50 mM, while solvent B was 25:25:50 tetrahydrofuran-acetonitrile-(NH4)2HPO4 50 mM. Solvent flow rate was 0.75 ml/min and the column temperature was ambient. […] Labetalol and metabolites were measured by fluorescence detection using a Jasco model FP920 detector. Excitation and emission wavelengths were 370 nm 418 nm respectively. Retention times for salicylamide internal standard and labetalol were 6.6 min and 15.0 min respectively.

[4] = test system: T3, UGT enzymes of human liver microsomes; test: Kinetic and Ki studies of inhibitors of 7-HFC glucuronidation in human liver microsomes; format: biochemical; settings: 7-HFC 20-500 μM; for Km: read-out: Km of 7-HFC glucuronidation (fit of the experiment with this inhibitor)
T3 construct: percentage of control metabolism, 7-HFC glucuronidation; percentage of control metabolism, 7-HFC glucuronidation

[5] = test system: T4, UGT enzymes of human liver microsomes; test: Inhibition of 2ME2 glucuronidation (MG1, MG2) in human liver microsomes; format: biochemical; settings: liver 062101, 2ME2 50 μM
T4 construct: other: liver 062101
Source text: as §1

[6] = test system: T5, UGT enzymes of human liver microsomes; test: Inhibition of estradiol (E2) glucuronidation in human liver microsomes; format: biochemical; settings: liver 032101, E2 50 μM
T5 construct: residual metabolism (% of control), E2-17-β-D-glucuronide; other: liver 032101; residual metabolism (% of control), E2-17-β-D-glucuronide
Source text: as §1

UGT1A1 = biological target: T6, UGT1A1 (Homo sapiens, UniProt P22309); test: Inhibition of raloxifene glucuronidation by recombinant UGT1A1 Supersomes; settings: for activity at 15 min / activity at 15 min, 2 μM / activity at 15 min, 5 µM / activity at 15 min, 10 µM / activity at 15 min, 25 µM / activity at 15 min, 50 µM: human; for activity at 15 min, 2 μM: inhibitor 2 μM; for activity at 15 min, 5 µM: inhibitor 5 μM; for activity at 15 min, 10 µM: inhibitor 10 μM; for activity at 15 min, 25 µM: inhibitor 25 μM; for activity at 15 min, 50 µM: inhibitor 50 μM
T6 sequence (P22309 26-533): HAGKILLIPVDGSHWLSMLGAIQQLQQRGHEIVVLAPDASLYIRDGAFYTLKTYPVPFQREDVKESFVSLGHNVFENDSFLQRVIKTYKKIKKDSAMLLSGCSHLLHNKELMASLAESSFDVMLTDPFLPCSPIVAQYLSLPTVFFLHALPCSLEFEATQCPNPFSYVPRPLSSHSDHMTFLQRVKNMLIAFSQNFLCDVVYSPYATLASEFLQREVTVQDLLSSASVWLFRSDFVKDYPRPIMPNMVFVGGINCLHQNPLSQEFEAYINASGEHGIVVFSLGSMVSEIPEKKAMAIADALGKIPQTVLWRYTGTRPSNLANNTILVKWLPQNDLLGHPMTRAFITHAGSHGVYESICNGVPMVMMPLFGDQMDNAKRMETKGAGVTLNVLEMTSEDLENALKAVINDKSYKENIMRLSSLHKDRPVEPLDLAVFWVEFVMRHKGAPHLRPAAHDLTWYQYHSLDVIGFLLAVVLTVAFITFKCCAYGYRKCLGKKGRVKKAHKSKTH
Experimental: (§2) Compounds were eluted using a binary solvent gradient system. Solvent A was water brought to pH 8 with NH4OH. Solvent B was methanol. Solvent flow rate was 1 ml/min and the column temperature was maintained at 50° C. Detection was at 280 nm. […] The system was then returned to the initial conditions and equilibrated for 3 min.

UGT1A10 = biological target: T7, UGT1A10 (Homo sapiens, UniProt Q9HAW8); test: Inhibition of raloxifene glucuronidation by recombinant UGT1A10 Bacculosomes; settings: for activity at 15 min, 25 µM / activity at 15 min, 50 µM: human, Bacculosomes with recombinant human UGT1A10, pH 7.5, probe raloxifene 50 μM; for activity at 15 min, 25 µM: inhibitor 25 μM; for activity at 15 min, 50 µM: inhibitor 50 μM
T7 sequence (Q9HAW8 26-530): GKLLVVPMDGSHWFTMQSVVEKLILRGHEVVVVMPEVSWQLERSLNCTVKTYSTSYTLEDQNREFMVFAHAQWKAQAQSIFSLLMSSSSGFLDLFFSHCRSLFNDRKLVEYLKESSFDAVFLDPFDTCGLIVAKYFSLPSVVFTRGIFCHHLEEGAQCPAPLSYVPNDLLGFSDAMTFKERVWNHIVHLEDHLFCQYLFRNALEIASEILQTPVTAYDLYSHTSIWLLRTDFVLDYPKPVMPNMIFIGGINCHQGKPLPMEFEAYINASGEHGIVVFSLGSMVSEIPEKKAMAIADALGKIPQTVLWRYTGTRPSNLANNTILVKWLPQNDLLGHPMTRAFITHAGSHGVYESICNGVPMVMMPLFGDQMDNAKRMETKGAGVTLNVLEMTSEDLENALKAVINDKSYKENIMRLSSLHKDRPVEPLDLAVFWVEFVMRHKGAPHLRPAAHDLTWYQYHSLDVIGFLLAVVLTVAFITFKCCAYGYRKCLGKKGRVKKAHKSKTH
Experimental: as §2

[7] = Supersomes with recombinant human UGT1A1, pH 7.5, probe raloxifene 50 μM, formation of glucuronide G1, % of control metabolism, raloxifene G1, UGT1A1
[8] = Supersomes with recombinant human UGT1A1, pH 7.5, probe raloxifene 50 μM, formation of glucuronide G1, Inhibition of raloxifene glucuronidation, G1, UGT1A1, G1, raloxifene 50 μM, 250 μg/ml Supersomes, 1 mM UDPGA, 15 min
[9] = Supersomes with recombinant human UGT1A1, pH 7.5, probe raloxifene 50 μM, formation of glucuronide G2, % of control metabolism, raloxifene G2, UGT1A1
[10] = recombinant UGT1A1 Supersomes, pH 7.5, probe raloxifene 50 μM (formation of glucuronide G1), Inhibition of raloxifene glucuronidation, G1, UGT1A1, G1, raloxifene 50 μM, 250 μg/ml Supersomes, 1 mM UDPGA, 15 min
[11] = recombinant UGT1A1 Supersomes, pH 7.5, probe raloxifene 50 μM (formation of glucuronide G2), Inhibition of raloxifene glucuronidation, G2, UGT1A1, G2, raloxifene 50 μM, 250 μg/ml Supersomes, 1 mM UDPGA, 15 min
[12] = formation of glucuronide G1, % of control metabolism, raloxifene G1, UGT1A10
[13] = formation of glucuronide G2, % of control metabolism, raloxifene G2, UGT1A10

`O=C(O)c1cc(-c2ccc(F)cc2F)ccc1O` [Diflunisal, reference compound] was tested, and the “residual metabolism (% of control), E2-3-β-D-glucuronide” value ([1]; liver 062101, inhibitor 100 μM) was 59 (2), obs %, the “residual metabolism (% of control), E2-3-β-D-glucuronide” value [2] was 49 (1), obs % and the “residual metabolism (percentage of control), labetalol LG1” value ([3]; inhibitor 50 μM) was 92 (4) %. For the same compound, the “residual metabolism (percentage of control), labetalol LG2” value ([3]; inhibitor 50 μM) was 80 (3) %, the “residual metabolism (percentage of control), labetalol LG1” value ([3]; inhibitor 100 μM) was 80 (6) % and 86 (5) % and the “residual metabolism (percentage of control), labetalol LG2” value ([3]; inhibitor 100 μM) was 70 (4) % and 73 (2) %. For the same compound, the “Vmax of 7-HFC glucuronidation (fit of the experiment with this inhibitor)” value [4] was 62 ± 4 nmol/min/mg, the Km [4] was 92 ± 9 µM and the “residual metabolism (% of control), 2ME2 MG1” value ([5]; inhibitor 50 μM) was 63 (2) %. The “residual metabolism (% of control), 2ME2 MG2” value ([5]; inhibitor 50 μM) was 90 (5) %, the “residual metabolism (% of control), 2ME2 MG1” value ([5]; inhibitor 100 μM) was 49 (1) % and the “residual metabolism (% of control), 2ME2 MG2” value ([5]; inhibitor 100 μM) was 91 (1) %.

For `C=CCc1ccc(O)c(OC)c1` [Eugenol], the “residual metabolism (% of control), E2-17-β-D-glucuronide” value ([6]; inhibitor 50 μM) was “obs, 94 (5) %”, the “residual metabolism (% of control), E2-17-β-D-glucuronide” value ([6]; inhibitor 100 μM) was “obs, 89 (6) %” and the “residual metabolism (percentage of control), labetalol LG1” value ([3]; inhibitor 100 μM) was 82 (2) %. The “residual metabolism (percentage of control), labetalol LG2” value ([3]; inhibitor 100 μM) was 75 (4) %, the “inhibition of raloxifene glucuronidation, in words” value (UGT1A1; UGT1A1) was “ineffective” and the “inhibition of raloxifene glucuronidation, in words” value (UGT1A10; UGT1A10) was “ineffective”. For the same compound, the “residual metabolism (% of control), 2ME2 MG2” value ([5]; inhibitor 100 μM) was 72 (1) %.

With `O=C(OC[C@H]1O[C@@H](OC(=O)c2cc(O)c(O)c(OC(=O)c3cc(O)c(O)c(O)c3)c2)[C@H](OC(=O)c2cc(O)c(O)c(OC(=O)c3cc(O)c(O)c(O)c3)c2)[C@@H](OC(=O)c2cc(O)c(O)c(OC(=O)c3cc(O)c(O)c(O)c3)c2)[C@@H]1OC(=O)c1cc(O)c(O)c(OC(=O)c2cc(O)c(O)c(O)c2)c1)c1cc(O)c(O)c(OC(=O)c2cc(O)c(O)c(O)c2)c1` [Tannic acid] the “residual metabolism (% of control), E2-3-β-D-glucuronide” value ([1]; liver 032101, inhibitor 10 μM) was 14 (1) %, the “residual metabolism (% of control), E2-17-β-D-glucuronide” value ([1]; liver 032101, inhibitor 10 μM) was 75 (3) % and the “residual metabolism (% of control), E2-3-β-D-glucuronide” value ([1]; liver 062101, inhibitor 10 μM) was 26 (4) %. The “residual metabolism (% of control), E2-17-β-D-glucuronide” value ([1]; liver 062101, inhibitor 10 μM) was 72 (3) %, the “residual metabolism (percentage of control), labetalol LG1” value ([3]; inhibitor 50 μM) was 42 (1) % and the “residual metabolism (percentage of control), labetalol LG2” value ([3]; inhibitor 50 μM) was 37 (2) %. The “residual metabolism (percentage of control), labetalol LG1” value ([3]; inhibitor 100 μM) was 19 (1) % and 21 (1) %, the “residual metabolism (percentage of control), labetalol LG2” value ([3]; inhibitor 100 μM) was 9 (0) % and 13 (3) % and the activity at 15 min (UGT1A1; Supersomes with recombinant human UGT1A1, pH 7.5, probe raloxifene 50 μM, formation of glucuronide G1) was 17%. It also gave an activity at 15 min, 2 μM (UGT1A1; [7]) of 71%, an activity at 15 min, 5 µM (UGT1A1; [7]) of 39% and an activity at 15 min, 10 µM (UGT1A1; [7]) of 17%. For the same compound, the activity at 15 min, 25 µM (UGT1A1; [7]) was 4%, the activity at 15 min, 50 µM (UGT1A1; [7]) was 0.4% and the activity at 15 min, 25 µM (UGT1A1; [8]) was 4%. For the same compound, the activity at 15 min, 50 µM (UGT1A1; [8]) was 0.4%, the activity at 15 min, 2 μM (UGT1A1; [9]) was 71% and the activity at 15 min, 5 µM (UGT1A1; [9]) was 38%. The activity at 15 min, 10 µM (UGT1A1; [9]) was 17%, the activity at 15 min, 25 µM (UGT1A1; [9]) was 8% and the activity at 15 min, 50 µM (UGT1A1; [9]) was 0.9%. The activity at 15 min, 2 μM (UGT1A1; [10]) was 71%, the activity at 15 min, 5 µM (UGT1A1; [10]) was 39% and the activity at 15 min (UGT1A1; recombinant UGT1A1 Supersomes, pH 7.5, probe raloxifene 50 μM (formation of glucuronide G2)) was 17%. It also gave an activity at 15 min, 2 μM (UGT1A1; [11]) of 71%, an activity at 15 min, 5 µM (UGT1A1; [11]) of 38% and an activity at 15 min, 25 µM (UGT1A1; [11]) of 8%. It also gave an activity at 15 min, 50 µM (UGT1A1; [11]) of 0.9%, an activity at 15 min, 25 µM (UGT1A10; [12]) of 56% and an activity at 15 min, 50 µM (UGT1A10; [12]) of 10%. The activity at 15 min, 25 µM (UGT1A10; [13]) was 53%, the activity at 15 min, 50 µM (UGT1A10; [13]) was 8% and the “Vmax of 7-HFC glucuronidation (fit of the experiment with this inhibitor)” value [4] was 57 ± 3 nmol/min/mg. For the same compound, the Km [4] was 85 ± 7 µM, the “residual metabolism (% of control), 2ME2 MG1” value ([5]; inhibitor 25 μM) was 13 (1) % and the “residual metabolism (% of control), 2ME2 MG2” value ([5]; inhibitor 25 μM) was 49 (7) %. The “residual metabolism (% of control), 2ME2 MG1” value ([5]; inhibitor 50 μM) was “<LOQ” and the “residual metabolism (% of control), 2ME2 MG2” value ([5]; inhibitor 50 μM) was 28 (1) %.

From patent US20030215462A1, “Use of UGT inhibitors to increase bioavailability” (priority 2001, published 2003)
